Reference: ChEMBL document CHEMBL4196131 (J Med Chem, 2018)
The source made the active and inactive calls. The calls are words filed in the database; no cut-off is given here.

Columns and labels:
Estrogen receptor beta [1] = molecular target: T1, Estrogen receptor beta (Homo sapiens, UniProt Q92731); assay: Binding affinity to human ERbeta LBD after 2 hrs in absence of light by competitive fluorometric binding assay
[2] = molecular target: T2, Estrogen receptor (Homo sapiens) (UniProt P03372); assay: Agonist activity at human ERalpha expressed in HEK293T cells after 24 hrs by ERE-based dual luciferase reporter gene assay relative to E2; format: cell-based
T2 sequence (whole entry): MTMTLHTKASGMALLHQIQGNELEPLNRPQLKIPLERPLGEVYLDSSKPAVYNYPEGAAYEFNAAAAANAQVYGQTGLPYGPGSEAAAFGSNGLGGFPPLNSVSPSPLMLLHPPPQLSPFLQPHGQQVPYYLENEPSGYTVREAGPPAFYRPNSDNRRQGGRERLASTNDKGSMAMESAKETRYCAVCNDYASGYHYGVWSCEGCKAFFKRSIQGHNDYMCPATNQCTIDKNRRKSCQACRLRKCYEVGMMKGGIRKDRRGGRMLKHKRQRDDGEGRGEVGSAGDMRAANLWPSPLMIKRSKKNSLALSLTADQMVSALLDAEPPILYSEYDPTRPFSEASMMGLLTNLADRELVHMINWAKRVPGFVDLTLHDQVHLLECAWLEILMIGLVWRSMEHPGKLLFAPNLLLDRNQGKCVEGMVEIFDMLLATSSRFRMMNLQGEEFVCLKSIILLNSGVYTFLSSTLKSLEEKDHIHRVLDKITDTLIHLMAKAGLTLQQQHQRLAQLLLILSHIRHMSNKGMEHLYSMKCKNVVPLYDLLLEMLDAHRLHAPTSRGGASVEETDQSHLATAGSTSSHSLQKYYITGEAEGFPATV

Estrogen receptor beta [3] = molecular target: T1, Estrogen receptor beta; assay: Agonist activity at human ERbeta expressed in HEK293T cells after 24 hrs by ERE-based dual luciferase reporter gene assay relative to E2; format: cell-based
Estrogen receptor [4] = molecular target: T3, Estrogen receptor (Homo sapiens, UniProt P03372); assay: Antagonist activity at human ERalpha expressed in HEK293T cells after 24 hrs by ERE-based dual luciferase reporter gene assay; format: cell-based
T3 sequence (P03372 whole entry): T2 sequence (whole entry)

[5] = molecular target: T2, Estrogen receptor (Homo sapiens); assay: Antagonist activity at human ERalpha expressed in HEK293T cells after 24 hrs by ERE-based dual luciferase reporter gene assay relative to E2; format: cell-based
Estrogen receptor beta [6] = molecular target: T1, Estrogen receptor beta; assay: Antagonist activity at human ERbeta expressed in HEK293T cells after 24 hrs by ERE-based dual luciferase reporter gene assay relative to E2; format: cell-based; design: concentration or dose not given beside the values
[7] = Inhibition of NFkappaB in mouse RAW 264.7 cells assessed as reduction in LPS induced NO production after 24 hrs by Griess assay; format: cell-based; settings: RAW264.7, 24 h
Mus musculus [8] = species on record: Mus musculus; assay: Inhibition of NFkappaB in mouse RAW 264.7 cells assessed as reduction in LPS induced NO production at 10 uM after 24 hrs by Griess assay relative to control; format: cell-based
MCF7 [9] = assay: cells; settings: Homo sapiens, MCF7, 72 h
MCF7 [10] = assay: Antitumor activity against human MCF7 cells xenografted in nude Balb/c mouse assessed as reduction in tumor burden at 25 mg/kg, po administered once every 2 days via gavage measured on day 12; format: functional; design: scale not given: the % may be the effect or the level left
MCF7 [11] = assay: Antitumor activity against human MCF7 cells xenografted in nude Balb/c mouse assessed as tumor growth inhibition at 25 mg/kg, po administered once every 2 days via gavage measured on day 27; format: functional; settings: read-out: TGI
Estrogen receptor [12] = molecular target: T3, Estrogen receptor; assay: Binding affinity to human ERalpha LBD after 2 hrs in absence of light by competitive fluorometric binding assay
Estrogen receptor beta [13] = molecular target: T1, Estrogen receptor beta; assay: Agonist activity at human ERbeta expressed in HEK293T cells after 24 hrs by ERE-based dual luciferase reporter gene assay; format: cell-based
Estrogen receptor beta [14] = molecular target: T1, Estrogen receptor beta; assay: Antagonist activity at human ERbeta expressed in HEK293T cells after 24 hrs by ERE-based dual luciferase reporter gene assay; format: cell-based
MCF7 [15] = assay: Antitumor activity against human MCF7 cells xenografted in nude Balb/c mouse assessed as reduction in tumor burden at 17.5 mg/kg, po administered once every 2 days via gavage measured every 3 days; format: functional, organism-based
Mus musculus [16] = assay: Toxicity in nude Balb/c mouse xenografted with human MCF7 cells assessed as reduction in body weight at 17.5 to 25 mg/kg, po administered once every 2 days via gavage measured every 3 days; format: organism-based; settings: in vivo
Mus musculus [17] = assay: Antiinflammatory activity in Balb/c mouse xenografted with human MCF7 cells assessed as inhibition of NFkappaB expression in tissues around the tumor at 17.5 to 25 mg/kg, po administered once every 2 days via gavage measured after 2 weeks post dose; format: functional, organism-based
Mus musculus [18] = assay: Antiinflammatory activity in Balb/c mouse xenografted with human MCF7 cells assessed as inhibition of IL6 expression in tissues around the tumor at 17.5 to 25 mg/kg, po administered once every 2 days via gavage measured after 2 weeks post dose; format: functional, organism-based
Mus musculus [19] = assay: Antiinflammatory activity in Balb/c mouse xenografted with human MCF7 cells assessed as inhibition of TNFalpha expression in tissues around the tumor at 17.5 to 25 mg/kg, po administered once every 2 days via gavage measured after 2 weeks post dose; format: functional, organism-based
MCF7 [20] = assay: Antiproliferative activity against human MCF7 cells at 5 to 20 uM after 48 hrs in presence of JSH-23 by MTT assay
Estrogen receptor [21] = molecular target: T3, Estrogen receptor; assay: Agonist activity at human ERalpha expressed in HEK293T cells after 24 hrs by ERE-based dual luciferase reporter gene assay; format: cell-based
[22] = Inhibition of NFkappaB in mouse RAW 264.7 cells assessed as reduction in LPS induced NO production after 24 hrs in presence of OBHS by Griess assay; settings: RAW264.7, 24 h
Mus musculus [23] = species on record: Mus musculus; assay: Inhibition of NFkappaB in mouse RAW 264.7 cells assessed as reduction in LPS induced NO production at 10 uM after 24 hrs in presence of OBHS by Griess assay relative to control; format: cell-based
MCF7 [24] = assay: Antiproliferative activity against human MCF7 cells after 72 hrs in presence of OBHS by MTT assay; settings: MCF7, 72 h

T1 sequence (Q92731 whole entry, the tested form may be a part): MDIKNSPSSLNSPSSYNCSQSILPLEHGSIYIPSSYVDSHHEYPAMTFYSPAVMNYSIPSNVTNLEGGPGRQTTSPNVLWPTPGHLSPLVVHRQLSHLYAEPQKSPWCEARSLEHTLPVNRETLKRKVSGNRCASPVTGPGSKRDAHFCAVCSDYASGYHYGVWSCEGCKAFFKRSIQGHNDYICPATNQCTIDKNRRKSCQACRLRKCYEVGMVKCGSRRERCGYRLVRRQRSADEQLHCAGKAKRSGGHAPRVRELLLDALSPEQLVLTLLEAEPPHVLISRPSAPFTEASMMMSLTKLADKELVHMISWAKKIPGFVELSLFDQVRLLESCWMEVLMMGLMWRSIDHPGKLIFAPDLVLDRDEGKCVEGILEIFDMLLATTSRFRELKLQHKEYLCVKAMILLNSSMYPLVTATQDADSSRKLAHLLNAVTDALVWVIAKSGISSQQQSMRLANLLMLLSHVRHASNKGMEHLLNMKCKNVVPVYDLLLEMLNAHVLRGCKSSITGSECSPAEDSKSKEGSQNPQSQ

Compound	Ki (Estrogen receptor beta [1])	Efficacy [2]	Efficacy (Estrogen receptor beta [3])	IC50 (Estrogen receptor [4])	Efficacy [5]	Efficacy (Estrogen receptor beta [6])	IC50 [7]	inhibition (Mus musculus [8])	IC50 (MCF7 [9])	Ki (Estrogen receptor [12])	EC50 (Estrogen receptor beta [13])	EC50 (Estrogen receptor [21])	further results
O=S(=O)(Oc1cccc(Br)c1)C1CC2OC1C(c1ccc(/C=C/c3cc(O)cc(O)c3)cc1)=C2c1ccc(O)cc1 (configuration not stated)	50 nM	3%	-2%	2420 nM	21%	65%	2.53 µM	60.9%	19.8 µM	–	–	–	–
CC/C(=C(\c1ccccc1)c1ccc(OCCN(C)C)cc1)c1ccccc1 [TAMOXIFEN]	–	–	–	–	–	–	–	–	–	–	–	–	Activity (MCF7 [10]): 48%; inhibition in vivo at 25 mg/kg (MCF7 [11]): 33%
COc1cc(/C=C/c2ccc(OS(=O)(=O)C3CC4OC3C(c3ccc(O)cc3)=C4c3ccc(O)cc3)cc2)cc(OC)c1 (configuration not stated)	73.4 nM	9 to 23%	23%	7 nM	48%	32%	0.44 µM	95.6%	3.7 µM	34.9 nM	4 nM	–	IC50 (Estrogen receptor beta [14]): 934 nM; Activity (MCF7 [15]): Active; Activity (MCF7 [10]): 55%; inhibition in vivo at 25 mg/kg (MCF7 [11]): ≤ 69%; Activity (Mus musculus [16]): Non-Toxic; inhibition (Mus musculus [17]): Active; inhibition (Mus musculus [18]): Active; inhibition (Mus musculus [19]): Active; Activity (MCF7 [20]): inactive
O=S(=O)(Oc1cccc(/C=C/c2cc(O)cc(O)c2)c1)C1CC2OC1C(c1ccc(O)cc1)=C2c1ccc(O)cc1 (configuration not stated)	4580 nM	15%	62%	1410 nM	29%	93%	16.7 µM	24.8%	17.8 µM	–	749 nM	–	–
CCc1ccccc1OS(=O)(=O)C1CC2OC1C(c1ccc(/C=C/c3cc(OC)cc(OC)c3)cc1)=C2c1ccc(O)cc1 (configuration not stated)	–	18%	20%	3 nM	37%	72%	0.79 µM	65.4%	49.8 µM	–	9 nM	146 nM	–
O=S(=O)(Oc1ccccc1C(F)(F)F)C1CC2OC1C(c1ccc(/C=C/c3cc(O)cc(O)c3)cc1)=C2c1ccc(O)cc1 (configuration not stated)	–	-24%	48%	–	3%	82%	17.2 µM	38.5%	18.3 µM	499 nM	2900 nM	–	–
O=S(=O)(Oc1ccc(-c2ccccc2)cc1)C1CC2OC1C(c1ccc(/C=C/c3cc(O)cc(O)c3)cc1)=C2c1ccc(O)cc1 (configuration not stated)	–	41%	82%	–	68%	97%	18.7 µM	43%	7.8 µM	–	43 nM	4930 nM	–
COc1cc(/C=C/c2ccc(C3=C(c4ccc(O)cc4)C4CC(S(=O)(=O)Oc5ccc(Br)cc5)C3O4)cc2)cc(OC)c1 (configuration not stated)	> 10000 nM	18%	6%	9270 nM	97%	94%	> 100 µM	30.8%	> 100 µM	> 10000 nM	–	–	–
Oc1ccc(/C=C/c2cc(O)cc(O)c2)cc1 [RESVERATROL]	–	–	–	–	–	–	13.1 µM	48%	22.9 µM	–	–	–	IC50 [22]: 11 µM; inhibition (Mus musculus [23]): 80.4%; IC50 (MCF7 [24]): 25.4 µM
Cc1ccccc1OS(=O)(=O)C1CC2OC1C(c1ccc(/C=C/c3cc(O)cc(O)c3)cc1)=C2c1ccc(O)cc1 (configuration not stated)	–	84%	36%	10 nM	36%	100%	28.4 µM	39.1%	55.8 µM	–	242 nM	1250 nM	–
O=S(=O)(Oc1ccccc1Cl)C1CC2OC1C(c1ccc(/C=C/c3cc(O)cc(O)c3)cc1)=C2c1ccc(O)cc1 (configuration not stated)	–	79%	25%	166 nM	49%	45%	5 µM	60.9%	40.4 µM	–	63 nM	273 nM	IC50 (Estrogen receptor beta [14]): 4310 nM
Cc1ccc(OS(=O)(=O)C2CC3OC2C(c2ccc(/C=C/c4cc(O)cc(O)c4)cc2)=C3c2ccc(O)cc2)cc1 (configuration not stated)	–	77%	29%	2 nM	1%	42%	12.5 µM	42.3%	9.2 µM	–	780 nM	71 nM	IC50 (Estrogen receptor beta [14]): 69 nM
COc1cc(/C=C/c2ccc(C3=C(c4ccc(O)cc4)C4CC(S(=O)(=O)Oc5ccccc5)C3O4)cc2)cc(OC)c1 (configuration not stated)	> 10000 nM	10%	57%	–	89%	85%	> 100 µM	20.4%	> 100 µM	> 10000 nM	5760 nM	–	–
